Laboratory results: patent US3940382A, “1,2'-Di-N-substituted kanamycin B compounds” (Zaidan Hojin Biseibutsu Kagaku Kenkyu Kai, priority 1973, dated 1976)

Legend:
[1] = test system: drug-resistant bacteria; details: cited from earlier work
[2] = test system: Escherichia coli W677; assay: MIC, serial dilution on nutrient agar; assay type: cell-based; details: Escherichia coli W677; nutrient agar, 37°C, 18 hours; read-out: Minimum Inhibitory Concentrations
[3] = test system: Pseudomonas aeruginosa 99; assay: MIC, serial dilution on nutrient agar; assay type: cell-based; details: Pseudomonas aeruginosa 99; nutrient agar, 37°C, 18 hours; read-out: Minimum Inhibitory Concentrations
[4] = test system: Escherichia coli NIHJ; assay: MIC, serial dilution on nutrient agar; assay type: cell-based; details: Escherichia coli NIHJ; nutrient agar, 37°C, 18 hours; read-out: Minimum Inhibitory Concentrations
[5] = test system: Escherichia coli K-12; assay: MIC, serial dilution on nutrient agar; assay type: cell-based; details: K12; Escherichia coli K-12; nutrient agar, 37°C, 18 hours; read-out: Minimum Inhibitory Concentrations
[6] = test system: Staphylococcus aureus FDA 209P; assay: MIC, serial dilution on nutrient agar; assay type: cell-based; details: FDA209P; Staphylococcus aureus FDA 209P; nutrient agar, 37°C, 18 hours; read-out: Minimum Inhibitory Concentrations
[7] = test system: Pseudomonas aeruginosa No.12; assay: MIC, serial dilution on nutrient agar; assay type: cell-based; details: Pseudomonas aeruginosa No.12; nutrient agar, 37°C, 18 hours; read-out: Minimum Inhibitory Concentrations
[8] = test system: Mycobacterium smegmatis ATCC 607; assay: MIC, serial dilution on nutrient agar; assay type: cell-based; details: Mycolicibacterium smegmatis, ATCC607; Mycobacterium smegmatis ATCC 607; nutrient agar, 37°C, 18 hours; read-out: Minimum Inhibitory Concentrations
[9] = test system: Pseudomonas aeruginosa TI-13; assay: MIC, serial dilution on nutrient agar; assay type: cell-based; details: TI13; Pseudomonas aeruginosa TI-13; nutrient agar, 37°C, 18 hours; read-out: Minimum Inhibitory Concentrations
[10] = test system: Escherichia coli LA290 R56; assay: MIC, serial dilution on nutrient agar; assay type: cell-based; details: LA290R56, 18 h, read-out: Minimum Inhibitory Concentrations
[11] = test system: Klebsiella pneumoniae PCI 602; assay: MIC, serial dilution on nutrient agar; assay type: cell-based; details: PCI602; Klebsiella pneumoniae PCI 602; nutrient agar, 37°C, 18 hours; read-out: Minimum Inhibitory Concentrations
[12] = test system: Escherichia coli JR66/W677; assay: MIC, serial dilution on nutrient agar; assay type: cell-based; details: Escherichia coli JR66/W677; nutrient agar, 37°C, 18 hours; read-out: Minimum Inhibitory Concentrations
[13] = test system: Pseudomonas aeruginosa GN315; assay: MIC, serial dilution on nutrient agar; assay type: cell-based; details: Pseudomonas aeruginosa GN315; nutrient agar, 37°C, 18 hours; read-out: Minimum Inhibitory Concentrations
[14] = test system: Pseudomonas aeruginosa A3; assay: MIC, serial dilution on nutrient agar; assay type: cell-based; details: Pseudomonas aeruginosa A3; nutrient agar, 37°C, 18 hours; read-out: Minimum Inhibitory Concentrations
[15] = test system: Escherichia coli K-12 ML 1630; assay: MIC, serial dilution on nutrient agar; assay type: cell-based; details: K12ML1630, 37°C, 18 hours, read-out: Minimum Inhibitory Concentrations
Procedure: The minimum inhibitory concentrations (mcg/ml) of 1,2'-di-N-[(S)-4-amino-2-hydroxybutyryl]-kanamycin B (abbreviated as 1,2'-AHB-KMB), 1,2'-di-N-[(S)-4-amino-2-hydroxybutyryl]-3',4'-dideoxykanamycin B (abbreviated as 1,2'-AHB-DKB), 1,2'-di-N-DL-isoseryl-3',4'-dideoxykanamycin B (abbreviated as 1,2'-IS-DKB) and 1,2'-di-N-DL-isoseryl-kanamycin B (abbreviated as 1,2'-IS-KMB) against various microorganisms were determined according to serial dilution method using nutrient agar medium at 37°C, the estimation being effected after 18 hours incubation. For comparison, the minimum inhibitory concentrations of kanamycin B (abbreviated as KMB) and 3',4'-dideoxykanamycin B (abbreviated as DKB) were also determined in the same manner as mentioned above.

[16] = test system: Escherichia coli LA290 R55; assay: MIC, serial dilution on nutrient agar; assay type: cell-based; details: LA290R55, 18 h, read-out: Minimum Inhibitory Concentrations
[17] = test system: Escherichia coli LA290 R64; assay: MIC, serial dilution on nutrient agar; assay type: cell-based; details: LA290R64, 18 h, read-out: Minimum Inhibitory Concentrations
[18] = test system: Escherichia coli K-12 ML 1629; assay: MIC, serial dilution on nutrient agar; assay type: cell-based; details: K12ML1629; Escherichia coli K-12 ML 1629; nutrient agar, 37°C, 18 hours; read-out: Minimum Inhibitory Concentrations
[19] = test system: Escherichia coli K-12 ML 1410; assay: MIC, serial dilution on nutrient agar; assay type: cell-based; details: K12ML1410; Escherichia coli K-12 ML 1410; nutrient agar, 37°C, 18 hours; read-out: Minimum Inhibitory Concentrations
[20] = test system: Klebsiella pneumoniae 22 -3038; assay: MIC, serial dilution on nutrient agar; assay type: cell-based; details: 223038; Klebsiella pneumoniae 22 -3038; nutrient agar, 37°C, 18 hours; read-out: Minimum Inhibitory Concentrations

SMILES | antibacterial activity against the drug-resistant bacteria [1] | MIC [2] [mg/L] | MIC [3] [mg/L] | MIC [4] [mg/L] | MIC [5] [mg/L] | MIC [6] [mg/L] | MIC [7] [mg/L] | MIC [8] [mg/L] | MIC [9] [mg/L] | MIC [10] [mg/L] | MIC [11] [mg/L] | MIC [12] [mg/L] | MIC [13] [mg/L] | MIC [14] [mg/L] | MIC [15] [mg/L] | MIC [16] [mg/L] | MIC [17] [mg/L] | MIC [18] [mg/L] | MIC [19] [mg/L] | MIC [20] [mg/L]
NC[C@H]1O[C@H](O[C@H]2[C@H](O[C@@H]3O[C@H](CO)[C@@H](O)[C@H]3O)[C@@H](O)[C@H](N)C[C@@H]2N)[C@H](N)C[C@@H]1O [3'-deoxyribostamycin] | improved antibacterial activity |  |  |  |  |  |  |  |  |  |  |  |  |  |  |  |  |  |  | 
NCC(O)C(=O)N[C@H]1[C@@H](O[C@H]2[C@H](O)[C@@H](O[C@H]3O[C@H](CO)[C@@H](O)[C@H](N)[C@H]3O)[C@H](NC(=O)C(O)CN)C[C@@H]2N)O[C@H](CN)[C@@H](O)[C@@H]1O (mixture of isomers) [1,2'-IS-KMB, 1,2'-di-N-DL-isoseryl-kanamycin B] |  | 3.13 | 50 | 6.25 | 6.25 | 3.13 | 25 | 1.56 | 12.5 | 6.25 | 3.13 | 25 | > 100 | 12.5 | 6.25 | 6.25 | 6.25 | 6.25 | 6.25 | 12.5
NC[C@@H]1CC[C@@H](N)[C@@H](O[C@H]2[C@H](O)[C@@H](O)[C@H](N)C[C@@H]2N)O1 [3',4'-dideoxyneamine] | improved antibacterial activity |  |  |  |  |  |  |  |  |  |  |  |  |  |  |  |  |  |  | 
NC[C@H]1O[C@H](O[C@H]2[C@H](O)[C@@H](O[C@H]3O[C@H](CO)[C@@H](O)[C@H](N)[C@H]3O)[C@H](N)C[C@@H]2N)[C@H](N)C[C@@H]1O [3'-deoxykanamycin B] | improved antibacterial activity |  |  |  |  |  |  |  |  |  |  |  |  |  |  |  |  |  |  | 
NCC(O)C(=O)N[C@@H]1CC[C@@H](CN)O[C@@H]1O[C@H]1[C@H](O)[C@@H](O[C@H]2O[C@H](CO)[C@@H](O)[C@H](N)[C@H]2O)[C@H](NC(=O)C(O)CN)C[C@@H]1N (mixture of isomers) [1,2'-IS-DKB, 1,2'-di-N-DL-isoseryl-3',4'-dideoxykanamycin B] |  | 3.13 | 50 | 6.25 | 6.25 | 1.56 | 25 | 1.56 | 12.5 | 6.25 | 3.13 | 12.5 | > 100 | 6.25 | 6.25 | 6.25 | 6.25 | 6.25 | 6.25 | 12.5
